We go through 6 compounds from patent US5932189A, “Cyclic peptide somatostatin analogs” (Diatech, Inc., priority 1994, dated 1999).

The structures appear in SMILES notation. pKi: −log10 of the molar value. Square brackets hold non-standard residues; d marks the D form. Peptide text beside a SMILES is read from it. * marks the point of attachment. X4 = NCCCC[C@H](NC(=O)[C@H](CS)NC(=O)CNC(=O)[C@@H](N)CCCCNC(=O)C*)C(N)=O; X8 = NC(=O)[C@H](CCC(=O)O)NC(=O)[C@H](CS)NC(=O)CNC(=O)[C@H](CS)NC(=O)C*; X2 = N=C(N)NCCC[C@H](NC(=O)[C@H](CS)NC(=O)CNC(=O)CNC(=O)C*)C(N)=O; X1 = NCCCC[C@H](NC(=O)[C@H](CS)NC(=O)CNC(=O)CNC(=O)C*)C(N)=O; NMeF = CN[C@@H](Cc1ccccc1)C(=O)O; hCys = N[C@@H](CCS)C(=O)O Bounds are passed on as bounds.

In the test the target is T1, somatostatin receptors (Rattus norvegicus, UniProt P30680).
T1 construct: endogenous in cells; host or cells: AR42J rat pancreatic tumor cell line (membrane preparation)
T1 sequence (P30680 whole entry): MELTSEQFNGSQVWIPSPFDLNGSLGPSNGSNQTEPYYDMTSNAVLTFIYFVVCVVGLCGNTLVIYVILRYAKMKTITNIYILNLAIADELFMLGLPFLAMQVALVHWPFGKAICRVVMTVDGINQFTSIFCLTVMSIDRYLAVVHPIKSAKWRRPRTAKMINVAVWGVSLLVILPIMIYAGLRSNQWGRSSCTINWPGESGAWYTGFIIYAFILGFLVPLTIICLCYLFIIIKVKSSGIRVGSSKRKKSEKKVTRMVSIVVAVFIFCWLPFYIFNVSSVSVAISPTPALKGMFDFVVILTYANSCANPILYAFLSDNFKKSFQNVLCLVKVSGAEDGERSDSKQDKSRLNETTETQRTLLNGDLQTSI
Kind of test: Inhibition of binding of (125I-Tyr11)somatostatin-14 to AR42J rat pancreatic tumor cell membranes. The settings on record: 0.5 nM (125I-Tyr11)somatostatin-14, 25 min at 30° C., Hill plots. The protocol:
Inhibition of Binding of (^125 I-Tyr^11)somatostatin-14 to AR42J Rat Pancreatic Tumor Cell Membranes
The rat pancreatic tumor cell line AR42J which expresses the somatostatin receptor was cultured in Dulbecco's minimal essential media (DMEM) supplemented with 10% fetal bovine serum (FBS) and 8 mM glutamine in a humidified 5% CO2 atmosphere at 37° C. in T-flasks. Harvested cells were homogenized in cold 50 mM Tris-HCl buffer (pH 7.4) and the homogenate then centrifuged at 39,000 g for 10 min at 4° C. Pellets were washed once with buffer and then resuspended in an ice-cold solution of 10 mM Tris-HCl (pH 7.4). Equal aliquots of this cell membrane preparation were incubated with (^125 I-Tyr^11)somatostatin-14 (at a final concentration of 0.5 nM and 750,000 cpm/mL, at a specific activity of 2000 Ci/mmol, Amersham, Arlington Heights, Ill.) and peptide at a final concentration of from 10^-11 M to 10^-6 M in a solution of 50 mM HEPES (pH 7.4) containing 1% bovine serum albumin (BSA), 5 mM MgCl2, Trasylol (200,000 International Units), bacitracin (0.02 mg/mL) and phenylmethylsulfonylfluoride (0.02 mg/mL) for 25 min at 30° C. Using a filtration manifold, this mixture was filtered through a polyethyleneimine-washed GC/F filter (Whatman, Maidstone, England), and the residue remaining on the filter washed thrice with 5 mL cold HEPES buffer. The filter and a sample of the filter washings were then counted in a gamma counter. To assess non-specific binding, the assay was performed in the presence of unlabeled somatostatin-14 at 200 nM. Data analysis including Hill plots of the data provided inhibition constants (see Bylund & Yamamura, "Methods of receptor binding", in Methods in Neurotransmitter Receptor Analysis, Yamamura et al., eds., Raven Press: New York, 1990).

For orientation: pKi means the negative decadic logarithm of the Ki, by convention in mol/L.

As to `CC(C)[C@@H]1NC(=O)[C@H](CCCCN)NC(=O)[C@@H](Cc2c[nH]c3ccccc23)NC(=O)[C@H](Cc2ccc(O)cc2)NC(=O)[C@H](Cc2ccccc2)N(C)C(=O)[C@H](CCS)NC1=O` [cyclo.(N--CH3)F.YWD KV.Hcy] (cyclo(KV[hCys][NMeF]Y[dW])), the pKi is > 11.00.

Compound `CC(C)[C@@H]1NC(=O)[C@H](CCCCN)NC(=O)[C@@H](Cc2c[nH]c3ccccc23)NC(=O)[C@H](Cc2ccc(O)cc2)NC(=O)[C@H](Cc2ccccc2)N(C)C(=O)[C@H](CCSCC(=O)NCC(=O)NCC(=O)N[C@@H](CS)C(=O)N[C@@H](CCCCN)C(N)=O)NC1=O` [cyclo.(N--CH3)F.YWD KV.Hcy(CH2 CO.GGCK.amide)] (cyclo([NMeF]Y[dW]KV[hCys](X1))) had a pKi of 8.60.

Turning to `C[C@@H](O)[C@@H]1NC(=O)[C@H](CCCCN)NC(=O)[C@@H](Cc2c[nH]c3ccccc23)NC(=O)[C@H](Cc2ccc(O)cc2)NC(=O)[C@H](Cc2ccccc2)N(C)C(=O)[C@H](CCS)NC1=O` [cyclo.(N--CH3)F.YWD KT.Hcy] (cyclo(KT[hCys][NMeF]Y[dW])), the pKi was 9.59.

`CC(C)[C@@H]1NC(=O)[C@H](CCCCN)NC(=O)[C@@H](Cc2c[nH]c3ccccc23)NC(=O)[C@H](Cc2ccc(O)cc2)NC(=O)[C@H](Cc2ccccc2)N(C)C(=O)[C@H](CCSCC(=O)N[C@@H](CS)C(=O)NCC(=O)N[C@@H](CS)C(=O)N[C@@H](CCC(=O)O)C(N)=O)NC1=O` [cyclo.(N--CH3)F.YWD KV.Hcy(CH2 CO.CGCE.amide)] (cyclo(KV[hCys](X8)[NMeF]Y[dW])): the pKi was 8.07.

`CC(C)[C@@H]1NC(=O)[C@H](CCCCN)NC(=O)[C@@H](Cc2c[nH]c3ccccc23)NC(=O)[C@H](Cc2ccc(O)cc2)NC(=O)[C@H](Cc2ccccc2)N(C)C(=O)[C@H](CCSCC(=O)NCC(=O)NCC(=O)N[C@@H](CS)C(=O)N[C@@H](CCCNC(=N)N)C(N)=O)NC1=O` [cyclo.(N--CH3)F.YWD KV.Hcy(CH2 CO.GGCR.amide)] (cyclo([NMeF]Y[dW]KV[hCys](X2))) showed a pKi of 9.54. Compared with the last compound, the pKi is 1.47 log units higher.

In the case of `CC(C)[C@@H]1NC(=O)[C@H](CCCCN)NC(=O)[C@@H](Cc2c[nH]c3ccccc23)NC(=O)[C@H](Cc2ccc(O)cc2)NC(=O)[C@H](Cc2ccccc2)N(C)C(=O)[C@H](CCSCC(=O)NCCCC[C@H](N)C(=O)NCC(=O)N[C@@H](CS)C(=O)N[C@@H](CCCCN)C(N)=O)NC1=O` [cyclo.(N--CH3)F.YWD KV.Hcy(CH2 CO.(ε-K)GCK.amide)] (cyclo([NMeF]Y[dW]KV[hCys](X4))), the pKi was 8.38.
